Laboratory results: ChEMBL document CHEMBL1144754, “Formation of fluorine-18 labeled diaryl ureas--labeled VEGFR-2/PDGFR dual inhibitors as molecular imaging agents for angiogenesis” (Bioorg Med Chem, 2008)

Tests used:
[1] = target: Receptor tyrosine-protein kinase erbB-2 (Homo sapiens, UniProt P04626); test: Inhibition of Her2 expressed in CSH12 cells by Western blot analysis; type: cell-based
[2] = target: Epidermal growth factor receptor (Homo sapiens, UniProt P00533); test: Inhibition of EGFR expressed in DHER14 cells by Western blot analysis; type: cell-based
Sequence of Epidermal growth factor receptor (P00533 whole entry): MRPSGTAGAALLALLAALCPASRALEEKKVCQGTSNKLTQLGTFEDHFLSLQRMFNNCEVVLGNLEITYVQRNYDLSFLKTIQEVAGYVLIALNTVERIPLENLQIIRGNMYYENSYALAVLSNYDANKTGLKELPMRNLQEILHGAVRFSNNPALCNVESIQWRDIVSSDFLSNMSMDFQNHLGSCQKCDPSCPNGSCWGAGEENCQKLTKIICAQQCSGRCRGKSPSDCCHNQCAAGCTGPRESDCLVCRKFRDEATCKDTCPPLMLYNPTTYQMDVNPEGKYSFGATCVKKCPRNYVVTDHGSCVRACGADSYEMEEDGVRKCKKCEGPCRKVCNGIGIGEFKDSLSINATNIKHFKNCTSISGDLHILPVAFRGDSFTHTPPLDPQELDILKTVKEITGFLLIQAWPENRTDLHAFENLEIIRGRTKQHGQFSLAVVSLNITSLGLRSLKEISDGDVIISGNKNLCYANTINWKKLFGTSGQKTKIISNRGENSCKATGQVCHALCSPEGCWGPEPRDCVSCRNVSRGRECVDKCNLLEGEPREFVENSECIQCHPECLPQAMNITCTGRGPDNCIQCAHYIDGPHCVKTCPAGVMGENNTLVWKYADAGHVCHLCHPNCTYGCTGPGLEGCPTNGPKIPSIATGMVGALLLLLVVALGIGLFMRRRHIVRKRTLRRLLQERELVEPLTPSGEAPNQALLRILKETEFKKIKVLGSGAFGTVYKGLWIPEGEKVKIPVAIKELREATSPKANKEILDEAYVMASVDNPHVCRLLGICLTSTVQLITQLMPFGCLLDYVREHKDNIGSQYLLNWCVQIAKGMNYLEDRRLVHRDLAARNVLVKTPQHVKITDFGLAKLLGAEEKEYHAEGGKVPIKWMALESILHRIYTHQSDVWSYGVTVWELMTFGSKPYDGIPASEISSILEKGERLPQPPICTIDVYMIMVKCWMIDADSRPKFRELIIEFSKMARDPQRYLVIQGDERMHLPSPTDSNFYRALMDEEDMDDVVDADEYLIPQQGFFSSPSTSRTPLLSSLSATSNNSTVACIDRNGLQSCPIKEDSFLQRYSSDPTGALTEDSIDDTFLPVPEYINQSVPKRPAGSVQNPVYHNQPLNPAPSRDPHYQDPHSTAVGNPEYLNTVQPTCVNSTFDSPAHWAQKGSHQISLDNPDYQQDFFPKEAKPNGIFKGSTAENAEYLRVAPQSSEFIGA

[3] = Inhibition of VEGFR expressed in PAE cells by Western blot analysis; type: cell-based
[4] = target: Insulin-like growth factor 1 receptor (Homo sapiens, UniProt P08069); test: Inhibition of IGF1R by ELISA
Sequence of Insulin-like growth factor 1 receptor (P08069 31-736 limits assumed): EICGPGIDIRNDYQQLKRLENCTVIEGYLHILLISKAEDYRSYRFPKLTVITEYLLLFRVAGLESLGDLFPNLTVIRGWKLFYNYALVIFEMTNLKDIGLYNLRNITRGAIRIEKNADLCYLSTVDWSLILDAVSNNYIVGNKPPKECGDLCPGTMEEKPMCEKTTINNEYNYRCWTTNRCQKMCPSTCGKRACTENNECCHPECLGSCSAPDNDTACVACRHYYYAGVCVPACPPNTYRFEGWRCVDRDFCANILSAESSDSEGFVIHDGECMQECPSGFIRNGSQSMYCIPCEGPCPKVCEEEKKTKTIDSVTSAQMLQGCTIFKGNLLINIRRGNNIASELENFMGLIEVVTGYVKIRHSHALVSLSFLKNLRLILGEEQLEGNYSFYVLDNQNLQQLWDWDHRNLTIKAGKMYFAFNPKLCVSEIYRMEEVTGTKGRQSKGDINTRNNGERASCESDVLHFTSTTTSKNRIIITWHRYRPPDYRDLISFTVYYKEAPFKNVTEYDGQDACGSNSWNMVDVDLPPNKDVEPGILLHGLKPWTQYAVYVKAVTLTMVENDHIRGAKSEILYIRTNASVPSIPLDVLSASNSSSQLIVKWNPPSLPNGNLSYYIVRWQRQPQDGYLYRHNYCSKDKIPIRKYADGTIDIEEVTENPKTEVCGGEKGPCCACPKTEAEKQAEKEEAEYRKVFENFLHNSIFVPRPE
Sequence of Insulin-like growth factor 1 receptor (P08069 741-1367 limits assumed): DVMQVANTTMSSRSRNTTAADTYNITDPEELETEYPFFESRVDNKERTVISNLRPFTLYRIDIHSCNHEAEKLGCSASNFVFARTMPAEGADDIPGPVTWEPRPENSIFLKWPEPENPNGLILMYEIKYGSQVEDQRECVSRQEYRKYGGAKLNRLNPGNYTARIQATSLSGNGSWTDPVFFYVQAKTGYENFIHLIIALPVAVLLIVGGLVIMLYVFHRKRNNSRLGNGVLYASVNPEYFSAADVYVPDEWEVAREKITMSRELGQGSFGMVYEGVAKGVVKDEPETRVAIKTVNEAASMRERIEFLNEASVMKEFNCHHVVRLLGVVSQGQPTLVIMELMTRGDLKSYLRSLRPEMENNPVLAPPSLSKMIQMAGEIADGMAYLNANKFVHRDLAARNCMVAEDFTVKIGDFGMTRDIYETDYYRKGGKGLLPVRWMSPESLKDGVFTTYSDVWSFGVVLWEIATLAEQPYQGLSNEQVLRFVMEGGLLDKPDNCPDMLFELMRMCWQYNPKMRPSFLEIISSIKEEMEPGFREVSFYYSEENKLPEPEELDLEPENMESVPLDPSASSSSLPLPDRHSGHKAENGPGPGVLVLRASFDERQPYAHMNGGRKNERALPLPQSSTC

[5] = Inhibition of PDGFR expressed in NIH cells by Western blot analysis; type: cell-based
[6] = tested on: Plasma; test: Ex vivo stability in human plasma assessed as radioactivity at 300 uCi upto 120 hrs; type: ADME, cell-free

Sequence of Receptor tyrosine-protein kinase erbB-2 (P04626 whole entry): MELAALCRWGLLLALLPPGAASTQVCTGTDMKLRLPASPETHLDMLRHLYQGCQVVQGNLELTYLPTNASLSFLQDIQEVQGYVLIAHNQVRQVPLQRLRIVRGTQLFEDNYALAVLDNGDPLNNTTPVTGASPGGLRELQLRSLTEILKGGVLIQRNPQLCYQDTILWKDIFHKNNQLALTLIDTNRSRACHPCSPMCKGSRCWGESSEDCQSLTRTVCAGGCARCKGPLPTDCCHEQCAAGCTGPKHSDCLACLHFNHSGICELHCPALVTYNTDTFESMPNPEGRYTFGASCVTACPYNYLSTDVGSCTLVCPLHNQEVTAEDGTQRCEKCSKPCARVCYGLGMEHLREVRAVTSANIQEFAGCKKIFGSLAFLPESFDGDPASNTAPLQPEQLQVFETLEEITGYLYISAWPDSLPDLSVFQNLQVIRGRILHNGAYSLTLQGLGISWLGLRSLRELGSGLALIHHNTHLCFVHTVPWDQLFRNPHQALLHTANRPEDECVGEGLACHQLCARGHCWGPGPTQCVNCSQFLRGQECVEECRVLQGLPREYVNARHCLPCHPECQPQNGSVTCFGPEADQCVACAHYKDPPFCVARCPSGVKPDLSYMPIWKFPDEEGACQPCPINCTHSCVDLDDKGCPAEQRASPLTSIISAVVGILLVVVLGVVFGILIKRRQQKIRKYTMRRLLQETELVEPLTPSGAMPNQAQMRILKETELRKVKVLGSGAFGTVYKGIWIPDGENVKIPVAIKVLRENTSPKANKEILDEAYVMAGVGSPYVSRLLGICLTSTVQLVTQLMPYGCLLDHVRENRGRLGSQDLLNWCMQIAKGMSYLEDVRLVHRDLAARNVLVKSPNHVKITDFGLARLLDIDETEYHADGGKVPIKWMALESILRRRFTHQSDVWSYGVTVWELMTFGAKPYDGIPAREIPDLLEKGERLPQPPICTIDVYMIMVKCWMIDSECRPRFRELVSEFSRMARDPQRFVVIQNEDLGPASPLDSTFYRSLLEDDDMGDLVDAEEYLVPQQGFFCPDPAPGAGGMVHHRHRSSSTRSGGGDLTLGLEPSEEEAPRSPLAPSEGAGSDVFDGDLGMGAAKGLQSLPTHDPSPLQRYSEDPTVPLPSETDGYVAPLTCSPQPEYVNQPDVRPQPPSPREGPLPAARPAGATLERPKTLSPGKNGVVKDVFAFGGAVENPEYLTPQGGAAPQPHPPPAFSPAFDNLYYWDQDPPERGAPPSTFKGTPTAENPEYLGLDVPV

Row | IC50 [1] [nM] | IC50 [2] [nM] | IC50 [3] [nM] | IC50 [4] [nM] | IC50 [5] [nM] | Stability [6] | Structure (SMILES)
1 | > 500 | > 500 | 8 | > 2000 | 2 |  | COc1cc2nccc(Oc3ccc(NC(=O)Nc4ccc(F)cc4)cc3F)c2cc1OC
2 |  |  |  |  |  | Stable | COc1cc2nccc(Oc3ccc(NC(=O)Nc4ccc([18F])cc4)cc3F)c2cc1OC
3 | > 500 | > 500 |  | > 2000 | 2 |  | COc1cc2nccc(Oc3ccc(NC(=O)Nc4ccc(F)cc4F)cc3F)c2cc1OC
4 | > 500 | > 500 | 4 | > 2000 | 2 |  | COc1cc2nccc(Oc3ccc(NC(=O)Nc4ccccc4F)cc3F)c2cc1OC
